In US20240190904A1, “Heteroaryl compounds as inhibitors of RIP2 kinase, composition and application thereof” (Accro Bioscience (HK) Limited, priority 2021, published 2024):
In brackets after ≈: the same amount, converted by molar mass.

Tests used:
RIP2 kinase = RIP2 kinase (Homo sapiens (Human), UniProt O43353); assay: Binding affinity assay (Kd)
Method: For most assays, kinase-tagged T7 phage strains were prepared in an E. coli host derived from the BL21 strain. E. coli were grown to log-phase and infected with T7 phage and incubated with shaking at 32° C. until lysis. The lysates were centrifuged and filtered to remove cell debris. The remaining kinases were produced in HEK-293 cells and subsequently tagged with DNA for qPCR detection. Streptavidin coated magnetic beads were treated with biotinylated small molecule ligands for 30 minutes at room temperature to generate affinity resins for kinase assays. The liganded beads were blocked with excess biotin and washed with blocking buffer (SeaBlock (Pierce), 1% BSA, 0.05% Tween 20, 1 mM DTT) to remove unbound ligand and to reduce non-specific binding. Binding reactions were assembled by combining kinases, liganded affinity beads, and test compounds in 1× binding buffer (20% SeaBlock, 0.17×PBS, 0.05% Tween 20, 6 mM DTT). Test compounds were prepared as 111× stocks in 100% DMSO. Kds were determined using an 11-point 3-fold compound dilution series with three DMSO control points. All compounds for Kd measurements are distributed by acoustic transfer (non-contact dispensing) in 100% DMSO. The compounds were then diluted directly into the assays such that the final concentration of DMSO was 0.9%. All reactions performed in polypropylene 384-well plate. Each was a final volume of 0.02 ml. The assay plates were incubated at room temperature with shaking for 1 hour and the affinity beads were washed with wash buffer (1×PBS, 0.05% Tween 20). The beads were then re-suspended in elution buffer (1×PBS, 0.05% Tween 20, 0.5 μM nonbiotinylated affinity ligand) and incubated at room temperature with shaking for 30 minutes. The kinase concentration in the eluates was measured by qPCR.
An 11-point 3-fold serial dilution of each test compound was prepared in 100% DMSO at 100× final test concentration and subsequently diluted to 1× in the assay (final DMSO concentration=1%). Most Kds were determined using a compound top concentration=30,000 nM. If the initial Kd determined was <0.5 nM (the lowest concentration tested), the measurement was repeated with a serial dilution starting at a lower top concentration.
Binding constants (Kds) were calculated with a standard dose-response curve using the Hill equation: […]
The Hill Slope was set to −1.
Curves were fitted using a non-linear least square fit with the Levenberg-Marquardt algorithm.

[1] = Metabolic stability test, HLM; type: in vitro ADME; settings: human, liver microsomes
Method: (§1) • 1. Buffers: • Buffer A: 1.0 L of 0.1 M monobasic Potassium Phosphate buffer containing 1.0 mM EDTA • Buffer B: 1.0 L of 0.1 M Dibasic Potassium Phosphate buffer containing 1.0 mM EDTA • Buffer C: 0.1 M Potassium Phosphate buffer, 1.0 mM EDTA, pH 7.4 by titrating 700 mL of buffer B with buffer A while monitoring with the pH meter. • 2. Reference compounds (Ketanserin) and test compounds spiking solution: • 500 μM spiking solution: add 10 μL of 10 mM DMSO stock solution into 190 μL ACN. • 1.5 μM spiking solution in microsomes (0.75 mg/mL): add 1.5 μL of 500 μM spiking solution and 18.75 μL of 20 mg/mL liver microsomes into 479.75 μL of Buffer C on ice. • 3. Prepare NADPH stock solution (6 mM) by dissolving NADPH into buffer C. • 4. Dispense 30 μL of 1.5 μM spiking solution containing 0.75 mg/mL microsomes solution to the assay plates designated for different time points (0-, 5-, 15-, 30-, 45-min) on ice. • 5. For 0-min time point, add 135 μL of ACN containing IS to the wells of 0-min plate and then add 15 μL of NADPH stock solution (6 mM). • 6. Pre-incubate all other plates at 37° C. for 5 minutes. • 7. Add 15 μL of NADPH stock solution (6 mM) to the plates to start the reaction and timing. • 8. At 5-min, 15-min, 30-min, and 45-min, add 135 μL of ACN containing IS to the wells of corresponding plates, respectively, to stop the reaction. • 9. After quenching, shake the plates at the vibrator (IKA, MTS 2/4) for 10 min (600 rpm/min) and then centrifuge at 5594 g for 15 min (ThermoMultifuge×3R). • 10. Transfer 50 μL of the supernatant from each well into a 96-well sample plate containing 50 μL of ultra pure water (Millipore, ZMQS50F01) for LC/MS analysis.

Caco-2 = Caco-2 permeability test; type: in vitro ADME; settings: Caco-2
Method: (§2) • 1. Prewarm HBSS Buffer in 37° C. water bath • 2. Take compounds from −20° C., sonicate for a few minutes (no less than 1 minute) • 3. Solution preparation
(§3) For A-to-B direction: • HBSS buffer with 0.3% DMSO and 5 μM LY: add 150 μL DMSO and 50 μL LY (5 mM) into 50 ml HBSS buffer (pH7.4). • HBSS buffer with 0.1% DMSO and 5 μM LY: add 50 μL DMSO and 50 μL LY (5 mM) into 50 mL HBSS buffer (pH7.4).
(§4) For B-to-A direction: • HBSS buffer with 0.3% DMSO: add 150 μL DMSO into 50 ml HBSS buffer (pH7.4) • HBSS buffer with 0.1% DMSO: add 50 μL DMSO into 50 ml HBSS buffer (pH7.4).
(§5) Receiver Solution Buffer:
(§6) Prepare HBSS buffer with 0.4% DMSO: add 200 μL DMSO into 50 ml HBSS buffer (pH7.4).
(§7) For B-to-A direction: • Prepare HBSS buffer with 0.4% DMSO and 5 uM LY: add 200 μL DMSO and 50 μL LY (5 mM) into 50 ml HBSS buffer (pH7.4).
(§8) Take cell culture plate out of incubator, wash the cell monolayers with HBSS buffer, and then measure TEER values at Rm temperature. • 5. Centrifuge the compound solution (from step 3) at 4000 rpm for 5 min before loading to donor chambers. • 6. Add solution based on the volumes listed in the following table (make sure to take extra 100 uL of donor sample for T0 as Backup).
(§9) • 7. To determine LY concentration in the apical chamber, take 100 μL sample from apical chambers into an opaque plate for LYT0. • 8. Prewarm apical and basolateral plates at 37° C. for about 5 min, then begin transport by placing the apical plate onto basolateral plate. • 9. Keep the plates in incubator at 37° C. for 90 min • 10. Prepare 20× solution
(§10) • 11. Separate the apical plate from the basolateral plate after 90-min incubation. • 12. Take 100 μL samples from basolateral plate to an opaque plate as LYT90. • 13. Measure LY concentrations for LYT0 and LYT90 by Fluorometer (at excitation of 485 nm/emission of 535 nm). • 14. Sample preparation for LC-MS/MS: Donor or receiver samples are diluted by 0.4% DMSO HBSS, then mix with ACN with IS (Osalmid or Imipramine)

Caco-2 permeability test = type: in vitro ADME; settings: human, Caco-2, pH 7.4
Method: as §2, §3, §4, §5, §6, §7, §8, §9, §10

[2] = Thermodynamic solubility test; type: physicochemical; settings: thermodynamic from solid; FaSSIF pH 6.5, thermodynamic
Method: • a. Add assay buffer into compound powder to make 4 mg/mL solution. • b. Sample tubes are shaken for 1 hour (1000 rpm), then equilibrated over night at room temperature. • c. Samples are centrifuged (10 min-12000 rpm) to precipitate un-dissolved particles. • d. Supernatants are transferred to new tubes. • e. Concentrations of the supernatants after centrifugation are determined by LCMSMS detection.

[3] = Metabolic stability test, RLM; type: in vitro ADME; settings: rat, liver microsomes
Method: as §1

[4] = Metabolic stability test, DLM; type: in vitro ADME; settings: dog, liver microsomes
Method: as §1

Chain of RIP2 kinase (O43353 whole entry): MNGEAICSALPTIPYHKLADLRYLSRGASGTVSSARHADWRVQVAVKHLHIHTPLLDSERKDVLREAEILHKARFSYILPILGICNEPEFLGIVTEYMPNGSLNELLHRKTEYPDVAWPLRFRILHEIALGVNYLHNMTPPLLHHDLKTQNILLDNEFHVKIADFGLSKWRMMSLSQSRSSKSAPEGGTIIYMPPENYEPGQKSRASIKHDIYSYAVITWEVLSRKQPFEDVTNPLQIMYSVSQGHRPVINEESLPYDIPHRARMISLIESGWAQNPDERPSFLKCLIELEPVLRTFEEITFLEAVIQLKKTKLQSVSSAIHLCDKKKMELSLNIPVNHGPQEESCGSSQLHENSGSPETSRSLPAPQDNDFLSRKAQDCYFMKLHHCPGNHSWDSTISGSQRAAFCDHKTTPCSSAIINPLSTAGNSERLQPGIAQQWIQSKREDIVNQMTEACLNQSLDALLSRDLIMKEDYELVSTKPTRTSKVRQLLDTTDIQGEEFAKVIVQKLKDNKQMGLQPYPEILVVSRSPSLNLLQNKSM

## CP(C)(=O)c1cc2c(Nc3ccc4scnc4c3)ccnc2cc1-c1cnn(C2CCNCC2)c1 [A13]
RIP2 kinase
  Kd: 1.4 nM
[1]; pH 7.4, read-out: Cl (mL/min/kg) HLM
  CLint scaled at 1 μM: 0.69 mL/min/kg
[1]; pH 7.4, read-out: T1/2 (min) HLM
  half-life at 1 μM: 2520 min
Caco-2
  permeability (in words): low
Caco-2 permeability test; A-B
  Papp A→B at 90 min: < 0.14 ×10⁻⁶ cm/s
Caco-2 permeability test; B-A
  Papp B→A at 90 min: 0.27 ×10⁻⁶ cm/s
Caco-2 permeability test; efflux ratio, read-out: Caco-2 Permeability B-A/A-B
  efflux ratio at 90 min: > 1.93
[2]
  solubility: 4.33 mM (≈ 2170 µg/mL)
[3]; pH 7.4, read-out: Cl (mL/min/kg) RLM
  CLint scaled at 1 μM: 31.6 mL/min/kg
[3]; pH 7.4, read-out: T1/2 (min) RLM
  half-life at 1 μM: 78.7 min
[4]; pH 7.4, read-out: Cl (mL/min/kg) DLM
  CLint scaled at 1 μM: 17.4 mL/min/kg
[4]; pH 7.4, read-out: T1/2 (min) DLM
  half-life at 1 μM: 198 min
